Calls of active or inactive are those of the source. No rule for the calls is given here.
System: GENE-TOX genotoxicity assays, various organisms and cells
Test: GENE-TOX mutagenicity studies
Settings: for call: Assay Type: In vivo carcinogenicity studies
[1] = Species/Cell Type: Drosophila melanogaster, Assay Type: Sex-linked recessive lethal gene mutation, Assay Code: SRLT, Evaluation Type: Evaluation A (Pre-1980)
[2] = Species/Cell Type: Escherichia coli polA (W3119 vs P3478), Assay Type: Rec-assay, DNA effects (bacterial DNA repair), Assay Code: RE1T, Evaluation Type: Evaluation A (Pre-1980)
[3] = Species/Cell Type: Mouse embryo (AKR/ME) cells, Assay Type: Cell transformation, Assay Code: CTK+, Evaluation Type: Evaluation A (Pre-1980)
[4] = Species/Cell Type: Nonhuman, Assay Code: CCG+, Evaluation Type: Evaluation A (Pre-1980)
[5] = Species/Cell Type: Saccharomyces cerevisiae, Assay Type: Mitotic recombination or gene conversion, Assay Code: YEH-, Evaluation Type: Evaluation A (Pre-1980)
[6] = Species/Cell Type: Salmonella typhimurium (one or more of the five standard strains: TA98, TA100, TA1535, TA1537, and TA1538), Assay Type: Histidine reverse gene mutation, Ames assay, Assay Code: SAL+*, Activation: With metabolic activation, Evaluation Type: Evaluation A (Pre-1980)
[7] = Species/Cell Type: Mammalian polychromatic erythrocytes, Assay Type: Micronucleus test, chromosome aberrations, Assay Code: MNTT, Evaluation Type: Evaluation B (Post-1980)
[8] = Species/Cell Type: Salmonella typhimurium (one or more of the five standard strains: TA98, TA100, TA1535, TA1537, and TA1538), Assay Type: Histidine reverse gene mutation, Ames assay, Assay Code: SAL+, Evaluation Type: Evaluation A (Pre-1980)

Question: How did the mutagenic call (Species/Cell Type: Chinese hamster ovary (CHO) cells, Assay Type: Forward gene mutation at the HPRT locus, Assay Code: CHO+, Evaluation Type: Evaluation B (Post-1980)) turn out when `Nc1ccc2ccccc2c1` was run?
Answer: active; positive

Question: What about the mutagenic call [1] of the same molecule?
Answer: no conclusion

Question: And the mutagenic call (Species/Cell Type: Escherichia coli polA (W3110 vs P3478), Assay Type: Rec-assay, DNA effects (bacterial DNA repair), Assay Code: RE2+, Evaluation Type: Evaluation A (Pre-1980))?
Answer: active; positive

Question: What about the mutagenic call (Species/Cell Type: Escherichia coli polA (W3119 vs P3478), Assay Type: Rec-assay, DNA effects (bacterial DNA repair), Assay Code: RE1-, Evaluation Type: Evaluation A (Pre-1980)) of the same molecule?
Answer: inactive; negative

Question: And the mutagenic call [2]?
Answer: no conclusion

Question: What about the mutagenic call (Species/Cell Type: Fischer rat embryo (RLV/1706) cells, Assay Type: Cell transformation, viral enhanced, Assay Code: CTR+, Evaluation Type: Evaluation A (Pre-1980)) of the same molecule?
Answer: active; positive

Question: And the mutagenic call (Species/Cell Type: Mammalian polychromatic erythrocytes, Assay Type: Micronucleus test, chromosome aberrations, Assay Code: MNT+, Evaluation Type: Evaluation A (Pre-1980))?
Answer: active; positive

Question: What about the mutagenic call (Species/Cell Type: Mouse (BALB/c-3T3) cells, Assay Type: Cell transformation, Assay Code: CTB-, Evaluation Type: Evaluation A (Pre-1980)) of the same molecule?
Answer: inactive; negative

Question: What about the mutagenic call [3] of the same molecule?
Answer: active; positive

Question: What about the mutagenic call (Species/Cell Type: Mouse, Sex: Male, Assay Type: Sperm morphology, Assay Code: SPI-, Evaluation Type: Evaluation A (Pre-1980)) of the same molecule?
Answer: inactive; negative

Question: And the mutagenic call (Species/Cell Type: Neurospora crassa, Assay Type: Forward gene mutation, Assay Code: NEF+, Evaluation Type: Evaluation A (Pre-1980))?
Answer: active; positive

Question: And the call [4]?
Answer: active; positive

Question: And the mutagenic call (Species/Cell Type: Nonhuman, Assay Type: Sister-chromatid exchange (SCE) in vitro, Assay Code: SC2+D*, Activation: With metabolic activation, Dose Response: With dose response, Evaluation Type: Evaluation B (Post-1980))?
Answer: active; positive

Question: What about the mutagenic call (Species/Cell Type: Nonhuman, Assay Type: Sister-chromatid exchange (SCE) in vivo, Assay Code: SC3+, Evaluation Type: Evaluation B (Post-1980)) of the same molecule?
Answer: active; positive

Question: And the mutagenic call (Species/Cell Type: Saccharomyces cerevisiae, Assay Type: Forward gene mutation, Assay Code: YEF+*, Activation: With metabolic activation, Evaluation Type: Evaluation A (Pre-1980))?
Answer: active; positive

Question: What about the mutagenic call (Species/Cell Type: Saccharomyces cerevisiae, Assay Type: Mitotic recombination or gene conversion, Assay Code: YEC+, Evaluation Type: Evaluation A (Pre-1980)) of the same molecule?
Answer: active; positive

Question: And the mutagenic call (Species/Cell Type: Saccharomyces cerevisiae, Assay Type: Mitotic recombination or gene conversion, Assay Code: YEH+*, Activation: With metabolic activation, Evaluation Type: Evaluation A (Pre-1980))?
Answer: active; positive

Question: And the mutagenic call [5]?
Answer: inactive; negative

Question: What about the mutagenic call [6] of the same molecule?
Answer: active; positive

Question: And the mutagenic call (Species/Cell Type: Salmonella typhimurium, Assay Type: Forward and reverse gene mutation, host-mediated assay, Assay Code: HMA+, Evaluation Type: Evaluation A (Pre-1980))?
Answer: active; positive

Question: And the mutagenic call (Species/Cell Type: Syrian hamster embryo (SA7/SHE) cells, Assay Type: Cell transformation, viral enhanced, Assay Code: CT7+, Evaluation Type: Evaluation A (Pre-1980))?
Answer: active; positive

Question: What about the mutagenic call (Species/Cell Type: Syrian hamster embryo (SHE) cells, Assay Type: Cell transformation, clonal assay, Assay Code: CTC+, Evaluation Type: Evaluation A (Pre-1980)) of the same molecule?
Answer: active; positive

Question: And the mutagenic call (Species/Cell Type: Tradescantia species, Assay Type: Gene mutation, Assay Code: TRM+D, Dose Response: With dose response, Evaluation Type: Evaluation A (Pre-1980))?
Answer: active; positive

Question: What does the source list for `CCN(CC)c1ccc2c(-c3ccc(C(=O)O)cc3C(=O)[O-])c3ccc(=[N+](CC)CC)cc-3oc2c1`?
Answer: mutagenic call (Species/Cell Type: Mammalian polychromatic erythrocytes, Assay Type: Micronucleus test, chromosome aberrations, Assay Code: MNT-, Evaluation Type: Evaluation B (Post-1980)): inactive; negative; mutagenic call (Species/Cell Type: Nonhuman, Assay Type: Sister-chromatid exchange (SCE) in vitro, Assay Code: SC2+D, Dose Response: With dose response, Evaluation Type: Evaluation B (Post-1980)): active; positive

Question: How did the mutagenic call [7] turn out when `F[Si-2](F)(F)(F)(F)F` was run?
Answer: no conclusion

Question: With `CCN(CC)CCOc1ccc(C(=C(Cl)c2ccccc2)c2ccccc2)cc1` as the molecule, how does the mutagenic call (Species/Cell Type: Human, Sex: Male, Assay Type: Sperm morphology, Assay Code: SPHT, Evaluation Type: Evaluation A (Pre-1980)) read?
Answer: no conclusion

Question: What about the mutagenic call [7] of the same molecule?
Answer: no conclusion

Question: Which mutagenic call (Species/Cell Type: Bacillus subtilis (H17 vs M45T), Assay Type: Rec-assay, spot test, DNA effects (bacterial DNA repair), Assay Code: REXT, Evaluation Type: Evaluation A (Pre-1980)) does the source give for `O=S1(=O)OC(c2ccc(O)cc2)(c2ccc(O)cc2)c2ccccc21` here?
Answer: no conclusion

Question: Which mutagenic call [1] does the source give for `CCN(CC)c1ccc(N=Nc2ccccc2C(=O)O)cc1` here?
Answer: no conclusion

Question: How did the mutagenic call (Species/Cell Type: Escherichia coli polA (W3110 vs P3478), Assay Type: Rec-assay, DNA effects (bacterial DNA repair), Assay Code: RE2-, Evaluation Type: Evaluation A (Pre-1980)) turn out when `Nc1ccccc1-c1ccccc1` was run?
Answer: inactive; negative

Question: And the mutagenic call [2]?
Answer: no conclusion

Question: What about the mutagenic call (Species/Cell Type: Fischer rat embryo (RLV/1706) cells, Assay Type: Cell transformation, viral enhanced, Assay Code: CTR-, Evaluation Type: Evaluation A (Pre-1980)) of the same molecule?
Answer: inactive; negative

Question: And the mutagenic call [3]?
Answer: active; positive

Question: What about the call (Species/Cell Type: Nonhuman, Assay Code: CCGT, Evaluation Type: Evaluation A (Pre-1980)) of the same molecule?
Answer: no conclusion

Question: What about the mutagenic call (Species/Cell Type: Nonhuman, Assay Type: Sister-chromatid exchange (SCE) in vivo, Assay Code: SC3T, Evaluation Type: Evaluation B (Post-1980)) of the same molecule?
Answer: no conclusion

Question: What about the mutagenic call (Species/Cell Type: Rat primary hepatocytes, Assay Type: Unscheduled DNA synthesis (UDS) in vitro, DNA effects, Assay Code: UDP-, Evaluation Type: Evaluation A (Pre-1980)) of the same molecule?
Answer: inactive; negative

Question: What about the mutagenic call [5] of the same molecule?
Answer: inactive; negative

Question: And the mutagenic call [6]?
Answer: active; positive

Question: What about the mutagenic call (Species/Cell Type: Salmonella typhimurium, Assay Type: Forward and reverse gene mutation, body fluid assay, Assay Code: BFU-, Evaluation Type: Evaluation A (Pre-1980)) of the same molecule?
Answer: inactive; negative

Question: What about the mutagenic call (Species/Cell Type: Salmonella typhimurium, Assay Type: Forward and reverse gene mutation, host-mediated assay, Assay Code: HMA-, Evaluation Type: Evaluation A (Pre-1980)) of the same molecule?
Answer: inactive; negative

Question: What about the mutagenic call (Species/Cell Type: Syrian hamster embryo (SHE) cells, Assay Type: Cell transformation, clonal assay, Assay Code: CTC-, Evaluation Type: Evaluation A (Pre-1980)) of the same molecule?
Answer: inactive; negative

Question: Which call [4] does the source give for `O=[N+]([O-])c1ccc(/C=C/c2cnc(N(CO)CO)nn2)o1` here?
Answer: active; positive

Question: Which mutagenic call [8] does the source give for `CC1=CC2=C(C=O)C(=O)[C@](C)(O)[C@@H](O)C2=CO1` here?
Answer: active; positive

Question: What does the source list for `[CH3][Hg+]`?
Answer: mutagenic call (Species/Cell Type: Allium cepa, Assay Type: Chromosome aberrations, Assay Code: ALC+D, Dose Response: With dose response, Evaluation Type: Evaluation A (Pre-1980)): active; positive; mutagenic call (Species/Cell Type: Drosophila melanogaster, Assay Type: Aneuploidy, sex chromosome gain, chromosome aberrations, Assay Code: DAG+M+F, Evaluation Type: Evaluation A (Pre-1980)): active; positive; mutagenic call (Species/Cell Type: Drosophila melanogaster, Assay Type: Aneuploidy, whole sex chromosome loss, chromosome aberrations, Assay Code: DAC+M+F, Evaluation Type: Evaluation A (Pre-1980)): active; positive

Question: With `O=[N+]([O-])c1ccc(N2CC2)c2c1no[n+]2[O-]` as the molecule, how does the mutagenic call [8] read?
Answer: active; positive

Question: How did the mutagenic call [8] turn out when `C=CC(OC(C)=O)c1ccc(OC)c2ccccc12` (configuration not stated) was run?
Answer: active; positive

Question: For `O=P(OCC(Br)CBr)(OCC(Br)CBr)OCC(Br)CBr` (configuration not stated), which mutagenic call (Species/Cell Type: Chinese hamster lung (V79) cells, Assay Type: Forward gene mutation, host-mediated assay, Assay Code: HMG+, Evaluation Type: Evaluation A (Pre-1980)) is on record?
Answer: active; positive

Question: And the mutagenic call (Species/Cell Type: Drosophila melanogaster, Assay Type: Sex-linked recessive lethal gene mutation, Assay Code: SRL+, Evaluation Type: Evaluation A (Pre-1980))?
Answer: active; positive

Question: What about the mutagenic call (Species/Cell Type: Drosophila melanogaster, Sex: Male, Assay Type: Heritable translocation test, chromosome aberrations, Assay Code: DHT+, Evaluation Type: Evaluation A (Pre-1980)) of the same molecule?
Answer: active; positive

Question: What about the mutagenic call (Species/Cell Type: Human, Assay Type: Sister-chromatid exchange (SCE) in vitro, Assay Code: SC1+, Evaluation Type: Evaluation B (Post-1980)) of the same molecule?
Answer: active; positive

Question: And the mutagenic call (Species/Cell Type: Mammalian polychromatic erythrocytes, Assay Type: Micronucleus test, chromosome aberrations, Assay Code: MNT+, Evaluation Type: Evaluation B (Post-1980))?
Answer: active; positive

Question: What about the mutagenic call (Species/Cell Type: Mouse, Sex: Male, Assay Type: Sperm morphology, Assay Code: SPI+, Evaluation Type: Evaluation A (Pre-1980)) of the same molecule?
Answer: active; positive

Question: What about the call [4] of the same molecule?
Answer: active; positive

Question: And the mutagenic call (Species/Cell Type: Nonhuman, Assay Type: Sister-chromatid exchange (SCE) in vitro, Assay Code: SC2+D, Dose Response: With dose response, Evaluation Type: Evaluation A (Pre-1980))?
Answer: active; positive

Question: And the mutagenic call (Species/Cell Type: Nonhuman, Assay Type: Sister-chromatid exchange (SCE) in vivo, Assay Code: SC3+D, Dose Response: With dose response, Evaluation Type: Evaluation A (Pre-1980))?
Answer: active; positive

Question: And the mutagenic call [8]?
Answer: active; positive

Question: With `O=C(O)Cc1ccccc1[N+](=O)[O-]` as the molecule, how does the mutagenic call [8] read?
Answer: active; positive

Question: `COc1ccc2c(ccc3c4c(ccc32)C(C)CC4)c1` (configuration not stated) was tested. Which mutagenic call (Species/Cell Type: Salmonella typhimurium (one or more of the five standard strains: TA98, TA100, TA1535, TA1537, and TA1538), Assay Type: Histidine reverse gene mutation, Ames assay, Assay Code: SALT, Evaluation Type: Evaluation A (Pre-1980)) did it give?
Answer: no conclusion

Question: With `Cc1ccc(C)cc1` as the molecule, how does the mutagenic call [7] read?
Answer: no conclusion

Question: With `COC(=O)NC(=S)Nc1ccccc1N` as the molecule, how does the mutagenic call (Species/Cell Type: Aspergillus nidulans, Assay Type: Aneuploidy, chromosome aberrations, Assay Code: ASN+, Evaluation Type: Evaluation A (Pre-1980)) read?
Answer: active; positive

Question: And the mutagenic call (Species/Cell Type: Aspergillus nidulans, Assay Type: Mitotic recombination, Assay Code: ASG-, Evaluation Type: Evaluation A (Pre-1980))?
Answer: inactive; negative

Question: How did the mutagenic call (Species/Cell Type: Vicia faba, Assay Type: Chromosome aberrations, Assay Code: VIC+D, Dose Response: With dose response, Evaluation Type: Evaluation A (Pre-1980)) turn out when `O=S(=O)(c1ccc(Cl)cc1)c1cc(Cl)c(Cl)cc1Cl` was run?
Answer: active; positive

Question: Which call [4] does the source give for `Nc1nnc(-c2ccc([N+](=O)[O-])o2)s1` here?
Answer: active; positive

Question: `COC(=O)COc1ccc(Br)cc1CCl` (tested in a mixture with another compound) was tested. Which mutagenic call (Species/Cell Type: Saccharomyces cerevisiae, Assay Type: Reverse gene mutation, Assay Code: YER+, Evaluation Type: Evaluation A (Pre-1980)) did it give?
Answer: active; positive
